# Reference: ChEMBL document CHEMBL4251628, “Novel click modifiable thioquinazolinones as anti-inflammatory agents: Design, synthesis, biological evaluation and docking study” (Eur J Med Chem, 2018)
# Experiments:
# [1] = target: T1, Prostaglandin G/H synthase 1 (Ovis aries, UniProt P05979); assay: Inhibition of ovine COX1 assessed as reduction in PGF2alpha production using arachidonic acid as substrate by colorimetric method
# T1 sequence (P05979 whole entry): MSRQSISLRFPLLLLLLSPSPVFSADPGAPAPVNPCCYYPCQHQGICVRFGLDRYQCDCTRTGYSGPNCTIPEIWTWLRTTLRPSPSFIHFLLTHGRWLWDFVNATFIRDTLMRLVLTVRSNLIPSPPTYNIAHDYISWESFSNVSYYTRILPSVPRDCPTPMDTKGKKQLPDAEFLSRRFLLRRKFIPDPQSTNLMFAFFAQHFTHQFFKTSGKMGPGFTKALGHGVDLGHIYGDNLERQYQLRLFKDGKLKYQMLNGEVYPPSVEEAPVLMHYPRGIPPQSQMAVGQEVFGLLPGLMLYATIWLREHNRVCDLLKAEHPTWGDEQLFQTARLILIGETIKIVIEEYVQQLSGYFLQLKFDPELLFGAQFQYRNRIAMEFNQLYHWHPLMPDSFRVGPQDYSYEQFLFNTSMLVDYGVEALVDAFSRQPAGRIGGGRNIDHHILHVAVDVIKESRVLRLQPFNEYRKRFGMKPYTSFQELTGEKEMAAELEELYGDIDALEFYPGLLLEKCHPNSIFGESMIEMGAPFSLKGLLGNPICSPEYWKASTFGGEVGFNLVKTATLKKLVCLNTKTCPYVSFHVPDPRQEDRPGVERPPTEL
# [2] = test system: Rattus norvegicus; assay: Anti-inflammatory activity in rat acute inflammation model assessed as inhibition of formalin-induced paw edema at 5 mg/kg, po measured after 4 hrs relative to control; assay type: functional
# [3] = test system: Rattus norvegicus; assay: Anti-inflammatory activity in rat acute inflammation model assessed as inhibition of formalin-induced paw edema at 5 mg/kg, po measured after 4 hrs relative to celecoxib; assay type: functional
# [4] = test system: Rattus norvegicus; assay: Anti-inflammatory activity in rat acute inflammation model assessed as inhibition of formalin-induced paw edema at 5 mg/kg, po measured after 4 hrs relative to negative control
# [5] = Inhibition of soybean 15-LOX using linoleic acid as substrate by colorimetric method; parameters: species or system Glycine max
# [6] = test system: THP-1; assay: Inhibition of PMA-induced human THP1 monocytes differentiation in to macrophages preincubated for 6 hrs followed by PMA stimulation by phase contrast microscopic method; assay type: functional, cell-based
# [7] = test system: Rattus norvegicus; assay: Ulcerogenicity in Wistar rat assessed as hyperemia in gastric mucosa at 60 mg/kg, po after 6 hrs; assay type: toxicity, organism-based; conditions: in vivo
# [8] = test system: THP-1; assay: Cytotoxicity against human THP1 cells assessed as reduction in cell viability after 30 hrs by MTS assay; assay type: cell-based; conditions: thp-1, 30 h
# [9] = test system: Rattus norvegicus; assay: Ulcerogenicity in Wistar rat assessed as lymphocytic infilteration in gastric mucosa po after 6 hrs by H and E staining based light microscopic method; conditions: in vivo
# [10] = test system: Rattus norvegicus; assay: Ulcerogenicity in Wistar rat assessed as congested blood vessels in gastric mucosa esophagus at 60 mg/kg, po after 6 hrs by H and E staining based light microscopic method; assay type: toxicity, organism-based; conditions: in vivo
# [11] = test system: Rattus norvegicus; assay: Ulcerogenicity in Wistar rat assessed as maceration of gastric mucosa at 60 mg/kg, po after 6 hrs by H and E staining based light microscopic method; assay type: toxicity, organism-based; conditions: in vivo
# [12] = test system: Rattus norvegicus; assay: Ulcerogenicity in Wistar rat assessed as necrosis of gastric mucosa at 60 mg/kg, po after 6 hrs by H and E staining based light microscopic method; assay type: toxicity, organism-based; conditions: in vivo
# [13] = test system: Rattus norvegicus; assay: Ulcerogenicity in Wistar rat assessed as effect on gastro-esophageal junction at 60 mg/kg, po after 6 hrs by H and E staining based light microscopic method; assay type: toxicity, organism-based; conditions: in vivo
# [14] = target: T2, Serine/threonine-protein kinase Chk1 (Homo sapiens, UniProt O14757); assay: Inhibition of CHK1 (unknown origin)
# T2 sequence (O14757 whole entry): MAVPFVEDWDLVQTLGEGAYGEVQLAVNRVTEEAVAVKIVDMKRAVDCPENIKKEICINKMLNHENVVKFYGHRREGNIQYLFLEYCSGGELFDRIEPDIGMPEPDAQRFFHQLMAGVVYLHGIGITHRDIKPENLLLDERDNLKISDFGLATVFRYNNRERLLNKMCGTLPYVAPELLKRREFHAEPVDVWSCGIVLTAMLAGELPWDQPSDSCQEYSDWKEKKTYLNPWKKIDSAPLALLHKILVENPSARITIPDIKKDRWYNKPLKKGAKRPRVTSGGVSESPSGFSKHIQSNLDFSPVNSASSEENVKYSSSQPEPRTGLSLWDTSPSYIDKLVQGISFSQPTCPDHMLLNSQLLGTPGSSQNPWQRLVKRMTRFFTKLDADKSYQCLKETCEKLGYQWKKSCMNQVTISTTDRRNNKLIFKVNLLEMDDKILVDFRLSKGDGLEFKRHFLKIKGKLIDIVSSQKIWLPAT
structure (smiles),measurement,setting,value
COc1ccc(-n2c(SCc3cn(-c4ccc(Br)cc4)nn3)nc3ccccc3c2=O)cc1,IC50,[1],7.63 µM
COc1ccc(-n2c(SCc3cc(-c4ccc(OC)c(OC)c4)no3)nc3ccccc3c2=O)cc1,IC50,[1],6.53 µM
O=C(O)c1ccc(-n2cc(CSc3nc4ccccc4c(=O)n3-c3ccccc3)nn2)cc1,IC50,[1],5.89 µM
O=c1c2ccccc2nc(SCc2cn(-c3ccc(Br)cc3)nn2)n1-c1ccccc1,IC50,[1],5.89 µM
O=c1c2ccccc2nc(SCc2cc(-c3ccc(Cl)cc3)no2)n1-c1ccc(Cl)cc1,IC50,[1],5.61 µM
COc1ccc(-c2cc(CSc3nc4ccccc4c(=O)n3-c3ccccc3)on2)cc1,IC50,[1],4.67 µM
same,inhibition in vivo at 5 mg/kg,[2],61.1%
same,inhibition in vivo at 5 mg/kg,[3],192%
same,inhibition in vivo at 5 mg/kg,[4],50%
C#CCSc1nc2ccccc2c(=O)n1-c1ccc(Cl)cc1,IC50,[1],4.26 µM
O=c1c2ccccc2nc(SCc2cn(-c3ccc(Br)cc3)nn2)n1-c1ccc(Br)cc1,IC50,[1],3.89 µM
same,IC50,[5],3.98 µM
same,IC50,[6],99.4 µM
same,inhibition in vivo at 5 mg/kg,[2],41.7%
same,inhibition in vivo at 5 mg/kg,[3],133%
same,Activity,[7],Toxic
same,Activity,[8],Non-Toxic
same,Activity,[9],Toxic
same,inhibition in vivo at 5 mg/kg,[4],50%
O=C(O)c1ccc(-n2cc(CSc3nc4ccccc4c(=O)n3-c3ccc(Cl)cc3)nn2)cc1,IC50,[1],2.97 µM
same,IC50,[5],7.62 µM
same,IC50,[6],0.13 µM
same,inhibition in vivo at 5 mg/kg,[2],70.8%
same,inhibition in vivo at 5 mg/kg,[3],225%
same,Activity,[7],Toxic
same,Activity,[10],Toxic
same,Activity,[11],Non-Toxic
same,Activity,[12],Non-Toxic
same,Activity,[8],Non-Toxic
same,Activity,[9],Non-Toxic
same,inhibition in vivo at 5 mg/kg,[4],50%
O=c1c2ccccc2nc(SCc2cn(-c3ccccc3)nn2)n1-c1ccccc1,IC50,[1],7.33 µM
O=c1c2ccccc2nc(SCc2cc(-c3ccc(Cl)cc3)no2)n1-c1ccccc1,IC50,[1],8.79 µM
O=c1c2ccccc2nc(SCc2cn(-c3ccc(Cl)cc3)nn2)n1-c1ccc(Cl)cc1,IC50,[1],6.32 µM
O=c1c2ccccc2nc(SCc2cc(-c3ccc(Cl)cc3)no2)n1-c1ccc(Br)cc1,IC50,[1],9.14 µM
COc1ccc(-c2cc(CSc3nc4ccccc4c(=O)n3-c3ccc(Cl)cc3)on2)cc1OC,IC50,[1],10.2 µM
O=c1c2ccccc2nc(SCc2cn(-c3ccccc3)nn2)n1-c1ccc(Cl)cc1,IC50,[1],8.24 µM
O=c1c2ccccc2nc(SCc2cn(-c3ccc(Cl)cc3)nn2)n1-c1ccccc1,IC50,[1],4.36 µM
same,IC50,[5],4.33 µM
same,IC50,[6],1.24 µM
same,inhibition in vivo at 5 mg/kg,[2],70.8%
same,inhibition in vivo at 5 mg/kg,[3],225%
same,Activity,[7],Non-Toxic
same,Activity,[13],Non-Toxic
same,Activity,[8],Non-Toxic
same,inhibition in vivo at 5 mg/kg,[4],50%
COc1ccc(-n2c(SCc3cn(-c4ccc(C(=O)O)cc4)nn3)nc3ccccc3c2=O)cc1,IC50,[1],11.9 µM
O=C(O)c1ccc(-n2cc(CSc3nc4ccccc4c(=O)n3-c3ccc(Br)cc3)nn2)cc1,IC50,[1],8.67 µM
O=c1c2ccccc2nc(SCc2cn(-c3ccccc3)nn2)n1-c1ccc(Br)cc1,IC50,[1],4.78 µM
COc1ccc(-n2c(SCc3cn(-c4ccc(Cl)cc4)nn3)nc3ccccc3c2=O)cc1,IC50,[1],4.22 µM
COc1ccc(-c2cc(CSc3nc4ccccc4c(=O)n3-c3ccc(OC)cc3)on2)cc1,IC50,[1],6.23 µM
COc1ccc(-c2cc(CSc3nc4ccccc4c(=O)n3-c3ccc(Br)cc3)on2)cc1,IC50,[1],5.34 µM
same,inhibition in vivo at 5 mg/kg,[2],61.1%
same,inhibition in vivo at 5 mg/kg,[3],192%
same,inhibition in vivo at 5 mg/kg,[4],50%
CCCC[C@@H](Sc1nc2ccccc2c(=O)n1-c1cccc(C)c1)C(=O)N1CCC[C@]2(CCCNC2)C1,IC50,[14],1300 nM
C#CCSc1nc2ccccc2c(=O)n1-c1ccc(OC)cc1,IC50,[1],6.54 µM
C#CCSc1nc2ccccc2c(=O)n1-c1ccc(Br)cc1,IC50,[1],3.87 µM
same,IC50,[5],6.21 µM
same,IC50,[6],4.77 µM
same,inhibition in vivo at 5 mg/kg,[2],70.8%
same,inhibition in vivo at 5 mg/kg,[3],225%
same,Activity,[7],Non-Toxic
same,Activity,[13],Non-Toxic
same,Activity,[8],Non-Toxic
same,inhibition in vivo at 5 mg/kg,[4],50%
COc1ccc(-c2cc(CSc3nc4ccccc4c(=O)n3-c3ccccc3)on2)cc1OC,IC50,[1],9.23 µM
O=c1c2ccccc2nc(SCc2cn(-c3ccc(Cl)cc3)nn2)n1-c1ccc(Br)cc1,IC50,[1],5.27 µM
same,IC50,[5],5.21 µM
same,IC50,[6],5.63 µM
same,inhibition in vivo at 5 mg/kg,[2],70.8%
same,inhibition in vivo at 5 mg/kg,[3],225%
same,Activity,[7],Toxic
same,Activity,[10],Toxic
same,Activity,[11],Non-Toxic
same,Activity,[12],Non-Toxic
same,Activity,[8],Non-Toxic
same,Activity,[9],Non-Toxic
same,inhibition in vivo at 5 mg/kg,[4],50%
O=c1c2ccccc2nc(SCc2cn(-c3ccc(Br)cc3)nn2)n1-c1ccc(Cl)cc1,IC50,[1],3.67 µM
COc1ccc(-c2cc(CSc3nc4ccccc4c(=O)n3-c3ccc(Br)cc3)on2)cc1OC,IC50,[1],4.57 µM
same,inhibition in vivo at 5 mg/kg,[2],51.4%
same,inhibition in vivo at 5 mg/kg,[3],167%
same,inhibition in vivo at 5 mg/kg,[4],50%
COc1ccc(-n2c(SCc3cc(-c4ccc(Cl)cc4)no3)nc3ccccc3c2=O)cc1,IC50,[1],7.68 µM
C#CCSc1nc2ccccc2c(=O)n1-c1ccccc1,IC50,[1],3.78 µM
COc1ccc(-c2cc(CSc3nc4ccccc4c(=O)n3-c3ccc(Cl)cc3)on2)cc1,IC50,[1],11.2 µM
COc1ccc(-n2c(SCc3cn(-c4ccccc4)nn3)nc3ccccc3c2=O)cc1,IC50,[1],10.5 µM
Cc1ccc(-c2cc(C(F)(F)F)nn2-c2ccc(S(N)(=O)=O)cc2)cc1 [CELECOXIB],inhibition in vivo at 5 mg/kg,[2],33.3%
same,Activity,[13],Non-Toxic
O=C(O)Cc1ccccc1Nc1c(Cl)cccc1Cl [DICLOFENAC],IC50,[6],4.86 µM
same,inhibition in vivo at 5 mg/kg,[2],66.7%
same,inhibition in vivo at 5 mg/kg,[3],208%
same,Activity,[8],Non-Toxic
Cc1ccc(Cl)c(Nc2ccccc2C(=O)O)c1Cl [MECLOFENAMATE SODIUM],IC50,[5],5.64 µM
CC(c1cc2ccccc2s1)N(O)C(N)=O (stereo unspecified) [ZILEUTON],IC50,[5],2.41 µM
